According to patent publication US20120064008A1, “COMPOSITIONS FOR THE TREATMENT OF METASTATIC CANCER AND METHODS OF USE THEREOF” (priority 2009, published 2012):
Where two headings read alike, the source gives them in different places.

Legend:
[1] = tested on: AT6.1 Dunning rat prostate carcinoma; assay: Survival in intravenous AT6.1 Dunning rat prostate carcinoma lung metastasis model; format: in vivo, nu/nu mice; details: for survival: 100 mg/kg, FIG. 6 (control 24.25 days); for average survival time: FIG. 5 (carrier only 20.4 days)
Description: Many anti-tumor drugs are tested only for their ability to prevent primary tumor growth or to prevent the dissemination of metastatic cells. To accomplish this, the drug is usually administered shortly after the primary tumor is established. […] The benzimidazoles described herein were evaluated in an experimental metastases model in the lungs of nude mice following tail-vein injection of Dunning rat AT6.1 prostate carcinoma. […] In order to achieve greater bioavailability, we first solubilized benzimidazoles in DNTC formulation and then diluted with saline prior to injection.
Inbred male nu/nu mice age 6-8 weeks were obtained from Massachusetts General Hospital (Boston, Mass.). The mice were virus antibody free, age and weight matched for experimental use and fed with a balanced rodent diet ad libitum. AT6.1 Dunning rat prostate cells were maintained as described above. 1×10^4 log-phase cells were injected via tail vein in 0.1 mL Hanks solution. Vehicle or drug treatment was started on day 5 post inoculation and given three times a week (Monday, Wednesday and Friday) via intraperitoneal injection in 0.5 mL volume. Benzimidazole drugs were prepared in the combination carrier [DMSO (12.5%), NMP (37.5%), TWEEN®-80 (25%) and CrEL (25%)] and diluted in saline. Vehicle control was prepared by diluting the combination carrier with saline.
During the course of treatment, the mice were monitored for toxicity by measuring body weight. […] Animals were euthanized with CO2 and tissues were collected for further analysis. The animals and experiments used in these studies were approved by the institutional animal care committee according to Children's Hospital Boston ARCH guidelines.
To distinguish differences in survival between these groups, the percent increase in life span (ILS %), defined as the percent increase in the mean time to death of drug-treated animals over the corresponding time to death for vehicle-treated mice, was calculated.

PC-3M cells = assay: Normalized mitotic index (histone H3 phospho-Serine-28), PC-3M; format: cell-based; details: Homo sapiens
Excerpt: (§1) The mitotic index for each agent was normalized against those obtained from vehicle-treated cells, and compared with the activity of paclitaxel, a known inducer of mitotic arrest.

[2] = tested on: AT6.1 Dunning rat prostate carcinoma; assay: Tumor burden by blood Gaussia luciferase assay in AT6.1 model; format: in vivo, nu/nu mice; details: 100 mg/kg; until day 22; FIG. 9
Excerpt: Similar to the survival model, treatment was not begun until day 5 when micrometastases were confirmed growing in the lung. For this approach, the AT6.1 cells were engineered to express secreted Gaussia luciferase enzyme. Using measurement of luciferase activity from the peripheral blood as an indicator of overall tumor burden, a significant reduction of tumor burden in the lungs of benzimidazole-treated animals when compared to vehicle-treated mice was observed. After 22 days, the mice were sacrificed and the lungs examined for viable tumor colonies.
Blood Gaussia luciferase assay was performed as described in the literature. Briefly, 10-20 μL peripheral blood was collected from the animals once a week via the retro-orbital vein. Secreted GAR luciferase activity was measured using a luminometer by adding 100 μL of 100 μM coelentrazine (Prolume, Nanolight, #303) to 5 μL blood and 2 μL of 20 mM EDTA. Relative luciferase reading from the blood collected represents the tumor burden in each animal. The reading was performed with blood collected at day 19 post inoculation when all mice were still alive.

PC3-TR cells [3] = assay: Normalized mitotic index, PC3-TR; format: cell-based, human; details: 1 μM
DU145-TR cells = assay: % apoptotic cells, DU145-TR; format: cell-based, human; details: 1 μM
AT6.1 cells = assay: Normalized mitotic index (histone H3 phospho-Serine-28), AT6.1; format: cell-based; details: Rattus norvegicus, normalized against vehicle-treated cells
Excerpt: as §1

[4] = tested on: MES-SA human uterine sarcoma cells; assay: Cell viability, MES-SA; format: cell-based; details: read-out: ED50 MES-SA
Excerpt: (§2) Benzimidazoles retain their anti-tumor activity in these paclitaxel-resistant cells, with higher potency when compared to the parental cells (see Table 4). Cells resistant to microtubule-stabilizing drugs such as the taxanes are more susceptible to microtubule-disrupting agents. To confirm this, human uterine sarcoma MES-SA/Dx5 cells, which are cross-resistant to various chemotherapeutic agents, including the microtubule-disrupting agents vincristine and colchicine, were used.

PC3-TR cells [5] = assay: % apoptotic cells, PC3-TR; format: cell-based, human; details: 1 μM
[6] = tested on: paclitaxel-resistant DU145-TR prostate cancer cells; assay: Cyquant cell viability assay, DU145-TR; format: cell-based, human; details: Homo sapiens, read-out: ED50 DU145-TR
Description: The cytotoxic effects of paclitaxel, fenbendazole, and albendazole were compared in paclitaxel-resistant PC3-TR and DU145-TR prostate cancer cells with their paclitaxel-sensitive counterparts, PC3 and DU145 cells. Cells were treated for 72 hours with vehicle, paclitaxel, fenbendazole or albendazole in various doses. Cell viability was measured using Cyquant assay, and percent control was calculated by dividing the fluorescent reading from drug-treated cells with those from vehicle-treated cells, indicating percentage of cell survival.

PC3 cells [7] = assay: Normalized mitotic index, PC3; format: cell-based, human; details: 1 μM
DU145 cells = assay: Normalized mitotic index, DU145; format: cell-based, human; details: 1 μM
PC3MLN4 cells = assay: Annexin V/7-AAD apoptosis by flow cytometry, PC3MLN4; details: for apoptotic cells in PC3MLN4: 1 μM, combination carrier
Description: (§3) Annexin V/7-amino-actinomycin D labeling was done according to the manufacturer's instructions (BD Pharmingen, 559763) and samples were analyzed by flow cytometry. Briefly, the cells were treated for 72 hours with either vehicle or 1 μM benzimidazole drugs, solubilized in the combination carrier. Cells were trypsinized and washed with PBS before resuspending in assay binding buffer. Annexin V and 7-amino-actinomycin labeling was performed at room temperature for 15 minutes before analysis by flow cytometry (BD FACScan). Cells positively stained for annexin V in the lower right quadrant and upper right quadrant indicate early and late apoptosis, respectively.
All benzimidazole drugs were solubilized in the combination carrier. After 72 hours, the cells were analyzed by annexin V/7-AAD staining. Cells positively stained for annexin V in the lower right quadrant and upper right quadrant indicate early and late apoptosis, respectively.

PC3M cells = assay: Annexin V/7-AAD apoptosis by flow cytometry, PC3M; format: cell-based, human; details: 1 μM, 72 hours, combination carrier
Description: All benzimidazole drugs were solubilized in the combination carrier. After 72 hours, the cells were analyzed by annexin V/7-AAD staining.
as §3

[8] = tested on: multidrug resistant MES-SA/Dx5 human uterine sarcoma cells; assay: Cell viability, MES-SA/Dx5; format: cell-based; details: read-out: ED50 MES-SA/Dx5
Excerpt: as §2

PC3 cells [9] = assay: % apoptotic cells, PC3; format: cell-based, human; details: 1 μM
[10] = 100 mg/kg i.p. three times a week, over vehicle-treated mice

Compound | percent increase in life span (ILS %) [1, 10] [%] | survival [1] [days] | tumor burden compared to the control [2] | Normalized mitotic index (6 hours) PC3-TR (PC3-TR cells [3]) | % Apoptotic cells (72 hours) DU145-TR (DU145-TR cells) [%] | EC50 [4] [nM] | % Apoptotic cells (72 hours) PC3-TR (PC3-TR cells [5]) [%] | Normalized mitotic index (6 hours) PC3 (PC3 cells [7]) | Normalized mitotic index (6 hours) DU145 (DU145 cells) | apoptotic cells in PC3MLN4 (PC3MLN4 cells; 72 hours) [%] | apoptotic cells in PC3M (PC3M cells) [%] | EC50 [8] [nM] | % Apoptotic cells (72 hours) PC3 (PC3 cells [9]) [%] | other results
COC(=O)Nc1nc2ccc(Sc3ccccc3)cc2[nH]1 [Fenbendazole, fenbendazole] | 45.3 | 35.25 | significant reduction in tumor burden | 1.48 | 43.3 | 3040 | 34.4 | 1.26 | 1.47 | 31.4 | 22.8 | 1130 | 16.1 | fold induction at 1 µM (PC-3M cells; at 1 μM, normalized against vehicle-treated cells, read-out: Normalized mitotic index PC-3M): > 1; fold induction at 1 µM (AT6.1 cells; at 1 μM, read-out: Normalized mitotic index AT6.1): > 1; EC50 ([6]; 72 hours, paclitaxel-resistant): 4210 nM; cytotoxic activity via apoptosis in highly metastatic prostate cancer cells (PC3MLN4 cells): induction of apoptosis
CCCSc1ccc2nc(NC(=O)OC)[nH]c2c1 [Albendazole, albendazole] | 59.7 | 38.75 | significant reduction in tumor burden | 1.56 | 55.8 | 1480 | 25.8 | 1.27 | 1.93 | 29.7 | 22 | 840 | 13.2 | average survival time ([1]; 50 mg/kg i.p. three times a week from day 5): 24.4 days; average survival time ([1]; 100 mg/kg i.p. three times a week from day 5): 32 days; percent increase in life span (ILS %) ([1]; 250 mg/kg three times a week): 64%; fold induction at 1 µM (PC-3M cells; read-out: Normalized mitotic index PC-3M, at 1 μM, normalized against vehicle-treated cells): > 1; fold induction at 1 µM (AT6.1 cells; read-out: Normalized mitotic index AT6.1, at 1 μM): > 1; EC50 ([6]; 72 h): 1080 nM; cytotoxic activity via apoptosis in highly metastatic prostate cancer cells (PC3MLN4 cells; 72 hours, annexin V): induction of apoptosis
